Results on 38 molecules are retold here after a melting point compilation (Tetko et al.).

Structures are written as SMILES. Non-standard residues stand in square brackets, D forms with d. Residues, ends and D or L forms follow the SMILES beside them. *: point of attachment. Phe(2-Me) = Cc1ccccc1C[CH](N)C(=O)O; Tle = CC(C)(C)[CH](N)C(=O)O; X3 = CC(C)(C)OC(=O)CCC(=O)*; Boc = CC(C)(C)OC(=O)*; Bn = c1ccc(C*)cc1; OtBu = CC(C)(C)O*

As to `CC(C)(C)c1cc(CCC(=O)OCCOc2ccc(C(C)(C)c3ccc(OCCOC(=O)CCc4cc(C(C)(C)C)c(O)c(C(C)(C)C)c4)cc3)cc2)cc(C(C)(C)C)c1O`, the melting point lay within 104 to 106 °C.
The molecule `CC(C)C(NC(=O)C(Cc1ccc(OCc2ccccc2)cc1)NC(=O)C(COCc1ccccc1)NC(=O)C(Cc1c[nH]c2ccccc12)NC(=O)OC(C)(C)C)C(=O)O` (stereo not drawn) (Boc-WS(Bn)Y(Bn)V-OH; configuration not given here) returned a melting point of 98 to 100 °C.
`C=CCOC1OC(CO)C(O)C(OC(=O)CC(CCCCCCCCCCC)OCc2ccccc2)C1NC(=O)CC(CCCCCCCCCCC)OCc1ccccc1` (stereo not drawn) registered a melting point of 80 to 82 °C.
As to `[C-]#[N+]C1(C)CN(C(=O)Nc2ccc(C(F)(F)F)cc2)N=C1c1ccc(Cl)cc1` (stereo not drawn), the melting point was 171 to 173 °C.
The molecule `Cc1ccccc1CC(NC(=O)C(CCC(=O)OC(C)(C)C)NC(=O)C(CC(=O)OC(C)(C)C)NC(=O)CCC(=O)OC(C)(C)C)C(=O)NC(C(=O)NC(CC(C)C)C(=O)O)C(C)(C)C` (X3-D(OtBu)E(OtBu)[Phe(2-Me)][Tle]L-OH; configuration not given here) returned a melting point of 235 to 236 °C.
Take `NC(=O)c1cc(-c2ccccc2)c(=O)n2c1-c1sccc1CC2`: the melting point fell in the range of 281 to 282 °C.
The molecule `CCOC(=O)Cc1ccc(-c2nc(COc3ccc(COc4nn(-c5ccccc5)cc4/C=C/c4nc(N5CCN(C(=O)OC(C)(C)C)CC5)sc4C)cc3OC)c(C)o2)cc1` showed a melting point of 112 to 114 °C.
Under `CCCc1[nH]c2ccccc2c1C1(c2ccc(N(CC)CC)cc2OCCCCOc2cc(N(CC)CC)ccc2C2(c3c(CCC)[nH]c4ccccc34)OC(=O)c3ccccc32)OC(=O)c2ccccc21` (stereo not drawn) stands 140 °C; under `CCCCCCCCCCCCCCCc1cccc(Oc2ccccc2SSc2ccccc2Oc2cccc(CCCCCCCCCCCCCCC)c2)c1`, 89 to 90 °C; under `COC(=O)COC1C(NC(C)=O)C(OCc2ccccc2)OC(COCc2ccccc2)C1OC1(N)OC(COCc2ccccc2)C(OCc2ccccc2)C(OCc2ccccc2)C1C(=O)OCC(Cl)(Cl)Cl` (stereo not drawn), 176 to 178 °C.
Under `CC(Br)C(=O)N=S(C)(=O)c1ccccc1` (stereo not drawn) stands 109 to 110 °C.
In the case of `CCNC(=O)[C@@H](C)NC(=O)[C@H](Cc1c[nH]cn1)NC(=O)[C@H](COCc1ccccc1)NC(=O)[C@H](Cc1ccc(OCc2ccccc2)cc1)NC(=O)[C@H](Cc1c[nH]cn1)NCc1ccccc1`, the melting point lay within 83 to 88 °C.
In turn, `O=C(OCCCCCCOc1ccc(-c2ccccc2)cc1)c1cc([N+](=O)[O-])ccc1-c1ccc([N+](=O)[O-])cc1C(=O)OCCCCCCOc1ccc(-c2ccccc2)cc1` had a melting point of 121 to 122 °C.
For `O=S(=O)(C(/C=C/c1ccc(I)cc1)c1ccc(Cl)cc1Cl)C(/C=C/c1ccc(I)cc1)c1ccc(Cl)cc1Cl` (stereo not drawn), the melting point fell in the range of 181 to 182 °C.
Regarding `CCCCCCC=CC(OC(=O)c1ccccc1)C(COC1OC(COCC(=O)O)C(OCC(=O)O)C(OC(=O)c2ccccc2)C1OC(=O)c1ccccc1)NC(=O)CCCCCCCCC(=O)OC` (stereo not drawn), the melting point was in the range of 124 to 125 °C.
`CCCCC(CC)C(=O)Cl` (stereo not drawn) came in with a melting point of under -75 °C.
`CCCCCCCCCCSc1c(SCCCCCCCCCC)c(SCCCCCCCCCC)c(SCCCCCCCCCC)c(SCCCCCCCCCC)c1SCCCCCCCCCC`: the melting point lay in the range of 29 to 30 °C.
Under `C=CC(=O)NCNC(=O)C=C` stands 185 °C; under `COC(=O)CCc1ccc(N(c2ccc(-c3ccc(N(c4ccc(CCC(=O)OC)cc4)c4cccc5c4Cc4ccccc4-5)cc3)cc2)c2cccc3c2Cc2ccccc2-3)cc1`, 127 to 129 °C.
Under `CCOC(=O)C=Cc1cc2cc(OC)ccc2[nH]c1=O` stands 209 to 211 °C.
`CC(=O)OCC1OC(NC(=O)C2=CC=C(Cl)C(N)([N+](=O)[O-])C2)C(OC(C)=O)C(OC(C)=O)C1OC1OC(COC(C)=O)C(OC(C)=O)C(OC(C)=O)C1OC(C)=O` (stereo not drawn) had a melting point of 115 to 119 °C.
Under `CCOC(=O)C(C)OC1C(Cl)=C(OC2=C(Cl)C(OC(C)C(=O)OCC)C(c3ccccc3C(F)(F)F)([N+](=O)[O-])C=C2)C=CC1(c1ccccc1C(F)(F)F)[N+](=O)[O-]` (stereo not drawn) stands 71 to 74 °C; under `CCCCCCCCCCCCCC=CC(OC(=O)c1ccccc1)C(COC1OC(COCCC(C(=O)OC(C)(C)C)C(=O)OC(C)(C)C)C(O)C(O)C1O)NC(=O)CCCCCCCCCCCCCCC` (stereo not drawn), 47.5 to 48.5 °C; under `COCCOc1ccc(/C=C(\C)C(=O)NS(=O)(=O)CC(F)(F)F)c(Oc2ncc(C(F)(F)F)cc2Cl)c1`, 159 to 160 °C.
For the molecule `C=Cc1cc(C=Cc2cc(C=Cc3cc(C(C)(C)C)cc(C(C)(C)C)c3)cc(C=Cc3cc(C(C)(C)C)cc(C(C)(C)C)c3)c2)cc(C=Cc2cc(C=Cc3cc(C(C)(C)C)cc(C(C)(C)C)c3)cc(C=Cc3cc(C(C)(C)C)cc(C(C)(C)C)c3)c2)c1`, the melting point is 272 to 275 °C.
Turning to `CC(C)[C@H](NC(=O)N(C)Cc1ccccn1)C(=O)N[C@@H](Cc1ccccc1)[C@H](O)[C@@H](O)[C@H](Cc1ccccc1)NC(=O)[C@@H](NC(=O)N(C)Cc1cscn1)C(C)C`, the melting point was 84 to 88 °C.
`Cc1ccc(Br)cc1C`: the melting point was -0.2 °C.
Under `Cc1cc(-c2nc3c(S(C)=O)cc(Cl)nn3c2-c2ccnc(N)c2)ccc1F` (stereo not drawn) stands 216 to 217 °C; under `CCC1=C(C#N)c2cc3c(c(O)c2CC1)C(=O)c1c(O)cccc1C3=O`, 227 to 228 °C; under `O=P(O)(C(F)(F)C(F)(F)C(F)(F)C(F)(F)C(F)(F)C(F)(F)C(F)(C(F)(F)F)C(F)(F)F)C(F)(F)C(F)(F)C(F)(F)C(F)(F)C(F)(F)C(F)(F)C(F)(C(F)(F)F)C(F)(F)F`, 170 to 172 °C.
In turn, `CCCCC1(CC)CS(=O)(=O)c2ccc(N(C)C)cc2C(c2cccc(NC(=O)COCCOCC(=O)NCc3ccc(N4C(=O)C(CCC(O)c5ccc(F)cc5)C4c4ccc(OC)cc4)cc3)c2)C1O` (stereo not drawn) registered a melting point of 116 to 125 °C.
Turning to `CN(C)CCCN1c2ccccc2Sc2ccc(Cl)cc21`, the melting point stood at 57 °C.
Take `[N-]=[N+]=C(C(=O)OCCN(CCOC(=O)C(=[N+]=[N-])C(=O)C1CCCCC1)CCN(CCOC(=O)C(=[N+]=[N-])C(=O)C1CCCCC1)CCOC(=O)C(=[N+]=[N-])C(=O)C1CCCCC1)C(=O)C1CCCCC1`: the melting point lay within 112 to 114 °C.
`CCCSC(=O)c1ccc([Si](CCC(F)(F)C(F)(F)C(F)(F)C(F)(F)C(F)(F)C(F)(F)C(F)(F)C(F)(F)C(F)(F)C(F)(F)F)(CCC(F)(F)C(F)(F)C(F)(F)C(F)(F)C(F)(F)C(F)(F)C(F)(F)C(F)(F)C(F)(F)C(F)(F)F)CCC(F)(F)C(F)(F)C(F)(F)C(F)(F)C(F)(F)C(F)(F)C(F)(F)C(F)(F)C(F)(F)C(F)(F)F)cc1`: the melting point lay in the range of 69 to 71 °C.
In turn, `CCC(C)C=O` (stereo not drawn) came in with a melting point of -60 °C.
For the molecule `CCOC(=O)N1c2cc(OC)c(OC)cc2C(=O)C(=CN)C1C` (stereo not drawn), the melting point is 92 to 95 °C.
Turning to `CCCCC(Cc1cc(C(C)(C)C)c(O)c(C(C)(C)C)c1)(C(=O)OC1CC(C)(C)N(OC2CCCCC2)C(C)(C)C1)C(=O)OC1CC(C)(C)N(OC2CCCCC2)C(C)(C)C1`, the melting point fell in the range of 184 to 185 °C.
`O=C(CC(CC(=O)OCc1cc(Br)cc(Br)c1O)C(=O)OCc1cc(Br)cc(Br)c1O)OCc1cc(Br)cc(Br)c1O` gave a melting point of 100 to 102 °C.

As a reminder, the melting point is the temperature, or range, at which the solid turns liquid.
